ChEMBL document CHEMBL5131556, “Ibogaine and Their Analogs as Therapeutics for Neurological and Psychiatric Disorders” (ACS Med Chem Lett, 2022)

How the values were obtained:
[1] = molecular target: Sodium-dependent serotonin transporter (Homo sapiens, UniProt P31645); assay: Inhibition of human SERT transfected in HEK cells using APP+ as fluorescent substrate preincubated for 1 hr followed by substrate addition and measured after 30 mins by fluorescence plate reader assay; format: cell-based
[2] = molecular target: Synaptic vesicular amine transporter (Rattus norvegicus, UniProt Q01827); assay: Inhibition of rat VMAT2 transfected in HEK cells using FFN206 as fluorescent substrate preincubated for 1 hr followed by substrate addition and measured after 30 mins by fluorescence plate reader assay; format: cell-based
Chain of Synaptic vesicular amine transporter (Q01827 whole entry): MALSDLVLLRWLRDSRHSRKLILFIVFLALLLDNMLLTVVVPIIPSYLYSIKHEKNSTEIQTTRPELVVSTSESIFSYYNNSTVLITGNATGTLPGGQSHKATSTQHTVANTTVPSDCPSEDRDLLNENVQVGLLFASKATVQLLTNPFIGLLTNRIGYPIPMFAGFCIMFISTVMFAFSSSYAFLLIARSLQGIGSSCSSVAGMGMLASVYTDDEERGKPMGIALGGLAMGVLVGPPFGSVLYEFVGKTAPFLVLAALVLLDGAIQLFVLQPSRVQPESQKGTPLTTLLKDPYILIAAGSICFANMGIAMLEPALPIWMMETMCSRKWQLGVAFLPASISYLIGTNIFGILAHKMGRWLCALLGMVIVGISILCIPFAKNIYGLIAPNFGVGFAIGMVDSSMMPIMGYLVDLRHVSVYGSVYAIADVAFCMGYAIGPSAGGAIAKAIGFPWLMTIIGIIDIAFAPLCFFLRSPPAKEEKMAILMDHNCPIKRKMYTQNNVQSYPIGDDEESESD

Chain of Sodium-dependent serotonin transporter (P31645 whole entry): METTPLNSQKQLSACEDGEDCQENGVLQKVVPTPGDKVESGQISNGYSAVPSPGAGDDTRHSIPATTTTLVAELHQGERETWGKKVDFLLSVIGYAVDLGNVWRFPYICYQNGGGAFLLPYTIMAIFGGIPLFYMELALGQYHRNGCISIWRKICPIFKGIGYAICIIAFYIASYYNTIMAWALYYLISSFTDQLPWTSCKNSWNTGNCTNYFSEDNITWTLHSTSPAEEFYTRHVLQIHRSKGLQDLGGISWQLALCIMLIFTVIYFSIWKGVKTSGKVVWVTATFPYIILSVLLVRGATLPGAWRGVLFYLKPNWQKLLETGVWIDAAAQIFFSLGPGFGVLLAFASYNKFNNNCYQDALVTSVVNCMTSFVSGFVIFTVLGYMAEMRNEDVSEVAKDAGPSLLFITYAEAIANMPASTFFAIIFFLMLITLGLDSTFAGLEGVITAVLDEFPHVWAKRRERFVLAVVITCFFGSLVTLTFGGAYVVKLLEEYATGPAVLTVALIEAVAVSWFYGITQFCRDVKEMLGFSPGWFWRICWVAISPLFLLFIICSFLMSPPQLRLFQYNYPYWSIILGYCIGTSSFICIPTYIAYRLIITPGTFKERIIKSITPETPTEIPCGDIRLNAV

| SMILES | IC50 [1] [nM] | IC50 [2] [nM] |
| --- | --- | --- |
| CC[C@H]1C[C@@H]2C[C@H]3c4c(c5cc(O)ccc5n4C)CCN(C2)[C@@H]13 | 59 | 170 |
| CC[C@H]1C[C@@H]2C[C@H]3c4[nH]c5ccccc5c4CCN(C2)[C@@H]13 | 330 | 3000 |
| CC[C@H]1C[C@@H]2C[C@H]3c4[nH]c5ccc(C#N)cc5c4CCN(C2)[C@@H]13 | 26 | 3300 |
| CC[C@H]1C[C@@H]2C[C@H]3c4[nH]c5ccc(OC)cc5c4CCN(C2)[C@@H]13 |  | 4000 |
| CC[C@H]1C[C@@H]2C[C@H]3c4c(c5cc(C#N)ccc5n4C)CCN(C2)[C@@H]13 | 5.1 | 440 |
| CC[C@H]1C[C@@H]2C[C@H]3c4c(c5ccccc5n4C)CCN(C2)[C@@H]13 | 80 | 1500 |
| CC[C@H]1C[C@@H]2C[C@H]3c4c(c5cc(OC)ccc5n4C)CCN(C2)[C@@H]13 | 1500 | 740 |
| CC[C@H]1C[C@@H]2C[C@H]3c4[nH]c5ccc(OC)c(Br)c5c4CCN(C2)[C@@H]13 | 670 | 4900 |
| CCOc1ccc2[nH]c3c(c2c1)CCN1C[C@@H]2C[C@H](CC)[C@H]1[C@H]3C2 | 9000 | 80 |
| CCc1ccc2c(c1)c1c(n2C)[C@@H]2C[C@H]3C[C@H](CC)[C@@H]2N(CC1)C3 | 910 | 750 |
| CC[C@H]1C[C@@H]2CC3c4[nH]c5ccc(O)cc5c4CCN(C2)[C@H]31 |  | 570 |
| CC[C@H]1C[C@@H]2C[C@H]3c4c(c5cc(O)ccc5n4CC)CCN(C2)[C@@H]13 | 1900 | 70 |
